{"source": "ChEMBL document CHEMBL1158222", "about": "“Antiinflammatory C-glucosyl chromone from Aloe barbadensis” (1996)", "key": {"Mus musculus [1]": {"organism": "Mus musculus", "experiment": "Antiinflammatory activity against croton oil-induced ear inflammation in BALB/c mouse at 200 ug/ear after 6 to 24 hrs", "assay_type": "functional, organism-based"}, "Mus musculus [2]": {"organism": "Mus musculus", "experiment": "Reduction in thymus weight in BALB/c mouse at 400 ug/ear", "assay_type": "functional, organism-based"}, "Mus musculus [3]": {"organism": "Mus musculus", "experiment": "Reduction in thymus weight in BALB/c mouse at 200 ug/ear", "assay_type": "functional", "design": "scale not given: the % may be the effect or the level left"}}, "note": "Active and inactive are the calls of the source. The rule behind the calls is not given here."}
{"smiles": "COc1cc(C)c2c(=O)cc(C[C@@H](C)O)oc2c1[C@@H]1O[C@H](CO)[C@@H](O)[C@H](O)[C@H]1OC(=O)/C=C/c1ccccc1", "values": [{"measurement": "Activity", "setting": "Mus musculus [1]", "value": "Active"}, {"measurement": "Activity", "setting": "Mus musculus [2]", "value": "inactive"}]}
{"smiles": "C[C@]12CCC(=O)C=C1CC[C@@H]1[C@@H]2[C@@H](O)C[C@@]2(C)[C@H]1CC[C@]2(O)C(=O)CO", "note": "[HYDROCORTISONE]", "values": [{"measurement": "Activity", "setting": "Mus musculus [1]", "value": "Active"}, {"measurement": "Activity", "setting": "Mus musculus [3]", "value": 50, "unit": "%"}]}
